Laboratory results as given in patent US5736559A, “Biphenyl derivatives, pharmaceutical compositions containing these compounds and processes for preparing them” (Karl Thomae GmbH, priority 1991, dated 1998).
Counter-ions that a name gives are not always drawn.

Tests used:
[1] = target: Fibrinogen binding to human thrombocytes; assay: Fibrinogen binding to human thrombocytes; conditions: 125I fibrinogen; gel-filtered human platelets; ADP; 20 minutes at ambient temperature; read-out: Fibrinogen binding test IC50
Procedure: Fibrinogen binding to human thrombocytes The blood obtained by puncturing an antecubital vein is anticoagulated with trisodium citrate (final concentration: 13 mM) and centrifuged for 10 minutes at 170 xg. The supernatant platelet-rich plasma is poured onto a Sepharose 2B column (Pharmacia) and eluted with a solution of 90 mM common salt, 14 mM trisodium citrate, 5 mM glucose and 50 mM Tris(hydroxymethyl)aminomethane, adjusted to pH 7.4. The gel-filtered platelets (GFP) appearing before the plasma proteins are used for the binding experiments. 50 μl of a 60 mM calcium chloride solution, 50 μl of a 0.6 mM adenosine diphosphate solution, 100 μl of substance solution or solvent and 50 μl of fibrinogen solution (containing 3 μg of ^125 I fibrinogen) are added to 750 μl of GFP and incubated for 20 minutes at ambient temperature. The non-specific binding is determined in the presence of 3 mg/ml of cold fibrinogen. 900 μl of the incubated material are carefully pipetted onto 250 μl of silicon oil (AP 38: AR 20, 1:2 v/v, Wacker Chemie) in Eppendorf tubes and centrifuged for 2 minutes at 10,000 xg. The aqueous supernatant and some of the oil are drawn off, the tips of the tubes are cut off together with the platelet pellet and the quantity of bound fibrinogen is determined in a gamma counter. The concentration of substance which brings about a 50% inhibition in fibrinogen binding is determined from a series of concentrations and is given as the IC50 value.

[2] = tested on: thrombocyte (platelet) aggregation; assay: Antithrombotic activity: collagen-induced thrombocyte aggregation in platelet rich plasma (Born and Cross); format: cell-based; conditions: Homo sapiens, platelet rich plasma from healthy test subjects, 10 minutes at 37° C. preincubation, 50% change in optical density, read-out: Inhibition of platelet aggregation EC50
Procedure: 2. Antithrombotic activity Method: Thrombocyte aggregation is measured in platelet rich plasma from healthy test subjects using the Born and Cross method (J. Physiol. 170, 397 (1964)). In order to inhibit coagulation the blood is mixed with sodium citrate 3.14% in a ratio by volume of 1:10. Collagen-induced aggregation: The course of the decrease in optical density of the platelet suspension is photometrically measured and recorded after the addition of the substance which triggers aggregation. The rate of aggregation is deduced from the gradient angle of the density curve. The point on the curve where there is maximum transmittance is used to calculate the optical density. The quantity of collagen used is as little as possible but sufficient to give an irreversible reaction curve. Standard commercial collagen produced by Hormonchemie of Munich is used. Before the addition of the collagen the plasma is incubated for 10 minutes at 37° C. with the substance. From the measurements obtained, an EC50 is determined graphically, relating to a 50% change in optical density in terms of the inhibition of aggregation.

IC50 [1] [µM] | SMILES | EC50 [2] [µM]
65 | N=C(N)c1ccc(-c2ccc(CC(=O)Nc3cccc(CC(=O)O)c3)cc2)cc1 [1(5), 4-amidino-4'-[[(3-carboxymethylphenyl)-aminocarbonyl]methyl]biphenyl] | > 100
0.33 | N=C(N)c1ccc(-c2ccc(OCC(=O)N3CCC(C(=O)O)CC3)cc2)cc1 [1(6), 4-amidino-4'-[[(4-carboxypiperidino)carbonyl]-methyloxy]biphenyl] | 1.2
0.21 | N=C(N)c1ccc(-c2ccc(OCCCCCC(=O)O)cc2)cc1 [Example 2, 4-Amidino-4'-(5-carboxypentyloxy)biphenyl hydrochloride] | 10
0.8 | NCc1ccc(-c2ccc(C(=O)N3CCC(CC(=O)O)CC3)cc2)cc1 [10(1), 4-aminomethyl-4'-[(4-carboxymethylpiperidino)-carbonyl]biphenyl hydrochloride] | 1.8
0.29 | N=C(N)c1ccc(-c2ccc(CC(=O)NCCC(=O)O)cc2)cc1 [Example 1, 4-Amidino-4'-[[(2-carboxyethyl)aminocarbonyl]methyl]-biphenyl] | 1.1
> 10 | N=C(N)c1ccc(-c2ccc(OCCCC(=O)O)cc2)cc1 [2(1), 4-amidino-4'-(3-carboxypropyloxy)biphenyl] | 56
3.8 | COC(=O)C1CCC(NC(=O)c2ccc(-c3ccc(C(=N)N)cc3)cc2)CC1 (centres unmarked) [6(87), 4-amidino-4'-[(4-methoxycarbonylcyclohexyl)-aminocarbonyl]biphenyl hydrochloride] | 0.06
7.4 | COC(=O)CCCCNC(=O)c1ccc(-c2ccc(C(=N)N)cc2)cc1 [6(72), 4-amidino-4'-[(4-methoxycarbonylbutyl)amino-carbonyl]biphenyl hydrochloride] | 3.4
19 | COC(=O)Cc1cccc(NC(=O)Cc2ccc(-c3ccc(C(=N)N)cc3)cc2)c1 [6(46), 4-amidino-4'-[[[3-(methoxycarbonylmethyl)phenyl]-aminocarbonyl]methyl]biphenyl hydrochloride] | 82
– | CN(C(=O)c1ccc(-c2ccc(C(=N)N)cc2)cc1)C1CCC(C(=O)O)CC1 (centres unmarked) [1(94), 4-amidino-4'-[N-(4-carboxycyclohexyl)-N-methyl-aminocarbonyl]biphenyl] | 0.04
27 | COC(=O)CCN1CCN(C(=O)c2ccc(-c3ccc(C(=N)N)cc3)cc2)CC1 [6(75), 4-amidino-4'-[[(4-(2-methoxycarbonylethyl)-piperazino]carbonyl]biphenyldi hydrochloride] | 3.2
4.9 | COC(=O)CCc1cccc(NC(=O)Cc2ccc(-c3ccc(C(=N)N)cc3)cc2)c1 [6(47), 4-amidino-4'-[[[3-(2-methoxycarbonylethyl)phenyl]-aminocarbonyl]methyl]biphenyl hydrochloride] | 42
5.2 | COC(=O)CCCOc1ccc(-c2ccc(C(=N)N)cc2)cc1 [6(8), 4-amidino-4'-(3-methoxycarbonylpropyloxy)biphenyl dihydrogencarbonate] | 3.4
0.57 | COC(=O)CCCCCOc1ccc(-c2ccc(C(=N)N)cc2)cc1 [Example 6, Di-[4-Amidino-4'-(5-methoxycarbonylpentyloxy)biphenyl]dihydrogencarbonate] | 2.6
0.56 | N=C(N)c1ccc(-c2ccc(C(=O)N3CCN(CCC(=O)O)CC3)cc2)cc1 [1(68), 4-amidino-4'-[[4-(2-carboxyethyl)piperazino]-carbonyl]biphenyl dihydrochloride] | 3.4
0.47 | N=C(N)c1ccc(-c2ccc(CC(=O)N3CCCC(CC(=O)O)C3)cc2)cc1 (centres unmarked) [1(47), 4-amidino-4'-[(3-carboxymethylpiperidino)-carbonylmethyl]biphenyl hydrochloride] | 2.7
0.34 | COC(=O)CC1CCN(C(=O)c2ccc(-c3ccc(C(=N)N)cc3)cc2)CC1 [6(50), 4-amidino-4'-[(4-methoxycarbonylmethylpiperidino)-carbonyl]biphenyl hydrochloride] | 0.89

IC50 [1] [µM] | SMILES | EC50 [2] [µM]
2.7 | N=C(N)c1ccc(-c2ccc(C(=O)N3CCC(C(=O)O)CC3)cc2)cc1 [1(74), 4-amidino-4'-[(4-carboxypiperidino)carbonyl]-biphenyl hydrochloride] | 10.7
3.1 | N=C(N)c1ccc(-c2ccc(NS(=O)(=O)NCCC(=O)O)cc2)cc1 [1(69), 4-amidino-4'-[(2-carboxyethyl)aminosulphonyl-amino]biphenyl] | 12
5.6 | COC(=O)CCCC(=O)Nc1ccc(-c2ccc(C(=N)N)cc2)cc1 [6(1), 4-amidino-4'-(4-methoxycarbonylbutyrylamino)-biphenyl hydrochloride] | 3.7
25 | COC(=O)C1CCN(C(=O)COc2ccc(-c3ccc(C(=N)N)cc3)cc2)CC1 [6(48), 4-amidino-4'-[[(4-methoxycarbonylpiperidino)-carbonyl]methyloxy]biphenyl hydrochloride] | 0.59
32 | COC(=O)C1CCCN(C(=O)COc2ccc(-c3ccc(C(=N)N)cc3)cc2)C1 (centres unmarked) [6(49), 4-amidino-4'-[[(3-methoxycarbonylpiperidino)-carbonyl]methyloxy]biphenyl hydrochloride] | 36
18 | COC(=O)CCNC(=O)COc1ccc(-c2ccc(C(=N)N)cc2)cc1 [6(3), 4-amidino-4'-[[(2-methoxycarbonylethyl)-aminocarbonyl]methyloxy]biphenyl h ydrochloride] | 17
1.3 | COc1ccc(CCNC(=O)C(CC(=O)O)NC(=O)CNC(=O)c2ccc(-c3ccc(C(=N)N)cc3)cc2)cc1 (centres unmarked) [Example 3, 4-Amidino-4'-[[[2-carboxy-1-[[2-(4-methoxyphenyl)-ethyl]aminocarbonyl]ethylamino]carbonylmethyl]-aminocarbonyl]biphenyl hydrochloride] | 16
24 | COC(=O)CN1CCN(C(=O)c2ccc(-c3ccc(C(=N)N)cc3)cc2)CC1 [6(74), 4-amidino-4'-[(4-methoxycarbonylmethylpiperazino)-carbonyl]biphenyl dihydrochloride] | 3.2
1.8 | N=C(N)c1ccc(-c2ccc(OCC(=O)NCC(=O)O)cc2)cc1 [1(3), 4-amidino-4'-[[(carboxymethylamino)carbonyl]-methoxy]-biphenyl] | 13
0.12 | N=C(N)c1ccc(-c2ccc(C(=O)NCCCC(=O)O)cc2)cc1 [1(2), 4-amidino-4'-[(3-carboxypropyl)aminocarbonyl]-biphenyl] | 7
0.22 | N=C(N)c1ccc(-c2ccc(CC(=O)N3CCC(C(=O)O)CC3)cc2)cc1 [1(45), 4-amidino-4'-[(4-carboxypiperidino)-carbonylmethyl]biphenyl hydrochloride] | 2
16 | COC(=O)CC1CCCN(C(=O)c2ccc(-c3ccc(C(=N)N)cc3)cc2)C1 (centres unmarked) [6(52), 4-amidino-4'-[(3-methoxycarbonylmethylpiperidino)-carbonyl]biphenyl hydrochloride] | 38
34 | COC(=O)CC1CCCN(C(=O)Cc2ccc(-c3ccc(C(=N)N)cc3)cc2)C1 (centres unmarked) [6(58), 4-amidino-4'-[(3-methoxycarbonylmethylpiperidino)-carbonylmethyl]biphenyl hydrochloride] | 23
– | COC(=O)C1CCC(N(C)C(=O)c2ccc(-c3ccc(C(=N)N)cc3)cc2)CC1 (centres unmarked) [6(98), 4-amidino-4'-[N-(4-methoxycarbonylcyclohexyl)-N-methylaminocarbonyl]biphenyl hydrochloride] | 0.37
0.046 | N=C(N)c1ccc(-c2ccc(OCCCCC(=O)O)cc2)cc1 [2(2), 4-amidino-4'-(4-carboxybutyloxy)biphenyl] | 45
– | CCOC(=O)CC1CCN(C(=O)c2ccc(-c3ccc(C(=N)NC(=O)OCC)cc3)cc2)CC1 [8(7), 4-(N-ethoxycarbonylamidino)-4'-[(4-ethoxycarbonyl-methylpiperidino)carbonyl]biphenyl] | > 10
1.9 | N=C(N)c1ccc(-c2ccc(OCC(=O)N3CCCC(C(=O)O)C3)cc2)cc1 (centres unmarked) [1(7), 4-amidino-4'-[[(3-carboxypiperidino)carbonyl]-methyloxy]biphenyl] | 3.8
